Legend:
Test in all cases: KINOMEscan (ScanMAX) kinase profiling
Type in all cases: binding
panel of 468 kinases [1] = target: T1, panel of 468 kinases (Homo sapiens, UniProt P00533, L858R); conditions: EGFR(L858R); 1 μM; read-out: % control
T1 construct: purchased KINOMEscan (ScanMAX) service

panel of 468 kinases [2] = target: T2, panel of 468 kinases (Homo sapiens, UniProt P21709); conditions: EPHA1; 1 μM; read-out: % control
T2 construct: purchased KINOMEscan (ScanMAX) service
T2 sequence (P21709 26-976): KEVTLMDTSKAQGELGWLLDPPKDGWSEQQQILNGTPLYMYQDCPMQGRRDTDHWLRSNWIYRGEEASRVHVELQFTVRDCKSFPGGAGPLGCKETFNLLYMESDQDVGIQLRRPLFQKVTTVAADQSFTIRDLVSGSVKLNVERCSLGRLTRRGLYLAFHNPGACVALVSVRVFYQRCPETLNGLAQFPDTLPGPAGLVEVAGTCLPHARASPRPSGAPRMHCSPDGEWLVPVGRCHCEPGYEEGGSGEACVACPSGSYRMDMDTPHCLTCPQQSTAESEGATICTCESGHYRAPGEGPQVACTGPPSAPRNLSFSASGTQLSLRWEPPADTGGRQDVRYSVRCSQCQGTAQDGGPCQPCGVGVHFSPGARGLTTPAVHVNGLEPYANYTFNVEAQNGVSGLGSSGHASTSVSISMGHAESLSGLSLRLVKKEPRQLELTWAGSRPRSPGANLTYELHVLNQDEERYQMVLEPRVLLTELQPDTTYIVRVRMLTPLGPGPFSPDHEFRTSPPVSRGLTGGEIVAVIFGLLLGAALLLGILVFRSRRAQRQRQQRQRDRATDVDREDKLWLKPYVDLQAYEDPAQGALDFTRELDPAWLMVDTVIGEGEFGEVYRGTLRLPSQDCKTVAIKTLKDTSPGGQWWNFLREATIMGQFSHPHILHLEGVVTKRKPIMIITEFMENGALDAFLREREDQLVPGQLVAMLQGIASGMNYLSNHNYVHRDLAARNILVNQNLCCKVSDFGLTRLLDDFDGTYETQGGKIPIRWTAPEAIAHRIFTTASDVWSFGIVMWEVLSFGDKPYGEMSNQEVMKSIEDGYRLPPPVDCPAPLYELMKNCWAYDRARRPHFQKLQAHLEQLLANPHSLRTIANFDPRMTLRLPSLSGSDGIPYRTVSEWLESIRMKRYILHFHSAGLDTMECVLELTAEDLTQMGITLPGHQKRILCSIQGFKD

panel of 468 kinases [3] = target: T3, panel of 468 kinases (Homo sapiens, UniProt P36507); conditions: MEK2; 1 μM; read-out: % control
T3 construct: purchased KINOMEscan (ScanMAX) service
T3 sequence (P36507 whole entry): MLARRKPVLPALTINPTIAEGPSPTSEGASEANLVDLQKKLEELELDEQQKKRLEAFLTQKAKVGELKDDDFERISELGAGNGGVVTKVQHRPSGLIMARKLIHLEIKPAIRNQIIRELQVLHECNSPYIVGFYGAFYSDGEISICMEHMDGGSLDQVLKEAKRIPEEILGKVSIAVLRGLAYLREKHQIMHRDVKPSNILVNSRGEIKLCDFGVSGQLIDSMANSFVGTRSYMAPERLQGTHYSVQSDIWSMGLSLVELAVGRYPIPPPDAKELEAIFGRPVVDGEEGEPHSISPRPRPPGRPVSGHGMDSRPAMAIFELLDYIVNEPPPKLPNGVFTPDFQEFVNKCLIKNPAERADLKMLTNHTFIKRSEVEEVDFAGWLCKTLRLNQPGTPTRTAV

panel of 468 kinases [4] = target: T4, panel of 468 kinases (Homo sapiens, UniProt P45984); conditions: JNK2; 1 μM; read-out: % control
T4 construct: purchased KINOMEscan (ScanMAX) service
T4 sequence (P45984 whole entry): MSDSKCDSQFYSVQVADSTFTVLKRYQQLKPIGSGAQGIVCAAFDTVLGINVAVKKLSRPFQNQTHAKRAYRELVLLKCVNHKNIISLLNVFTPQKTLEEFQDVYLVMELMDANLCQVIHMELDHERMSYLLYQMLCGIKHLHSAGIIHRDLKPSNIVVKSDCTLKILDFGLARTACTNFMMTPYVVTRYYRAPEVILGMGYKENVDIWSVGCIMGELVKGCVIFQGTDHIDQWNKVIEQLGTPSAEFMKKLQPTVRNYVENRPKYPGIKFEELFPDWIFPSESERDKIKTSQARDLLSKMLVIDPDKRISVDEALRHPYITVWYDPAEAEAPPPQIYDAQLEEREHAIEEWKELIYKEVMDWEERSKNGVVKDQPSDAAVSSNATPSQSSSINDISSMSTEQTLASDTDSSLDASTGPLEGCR

panel of 468 kinases [5] = target: T5, panel of 468 kinases (Homo sapiens, UniProt P54753); conditions: EPHB3; 1 μM; read-out: % control
T5 construct: purchased KINOMEscan (ScanMAX) service
T5 sequence (P54753 34-998): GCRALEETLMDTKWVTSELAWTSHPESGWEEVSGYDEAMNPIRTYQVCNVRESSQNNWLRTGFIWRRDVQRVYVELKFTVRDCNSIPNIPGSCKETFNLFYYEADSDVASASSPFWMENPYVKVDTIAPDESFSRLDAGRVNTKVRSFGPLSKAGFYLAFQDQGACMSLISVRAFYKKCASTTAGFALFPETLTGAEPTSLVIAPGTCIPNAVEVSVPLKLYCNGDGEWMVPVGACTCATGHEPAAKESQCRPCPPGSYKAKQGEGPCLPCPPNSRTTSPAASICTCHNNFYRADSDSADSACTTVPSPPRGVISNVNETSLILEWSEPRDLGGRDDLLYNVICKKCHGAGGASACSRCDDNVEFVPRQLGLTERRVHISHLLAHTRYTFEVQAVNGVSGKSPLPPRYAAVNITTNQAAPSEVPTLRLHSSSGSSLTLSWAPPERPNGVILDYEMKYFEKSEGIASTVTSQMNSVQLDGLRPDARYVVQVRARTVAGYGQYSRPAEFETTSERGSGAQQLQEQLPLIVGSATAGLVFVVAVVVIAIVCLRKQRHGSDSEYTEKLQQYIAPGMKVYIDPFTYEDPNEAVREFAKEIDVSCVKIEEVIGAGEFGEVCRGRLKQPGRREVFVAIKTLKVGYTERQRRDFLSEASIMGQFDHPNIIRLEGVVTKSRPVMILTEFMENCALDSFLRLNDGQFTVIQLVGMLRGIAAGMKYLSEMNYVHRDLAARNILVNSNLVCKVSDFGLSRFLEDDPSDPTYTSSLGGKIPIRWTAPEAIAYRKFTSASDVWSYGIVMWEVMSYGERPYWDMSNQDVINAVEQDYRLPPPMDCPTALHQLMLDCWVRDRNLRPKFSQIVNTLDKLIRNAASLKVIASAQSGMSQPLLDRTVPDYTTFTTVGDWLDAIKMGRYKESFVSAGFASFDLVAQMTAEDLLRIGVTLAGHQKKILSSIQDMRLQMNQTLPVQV

panel of 468 kinases [6] = target: T6, panel of 468 kinases (Homo sapiens, UniProt Q8N4C8); conditions: MINK; 1 μM; read-out: % control
T6 construct: purchased KINOMEscan (ScanMAX) service
T6 sequence (Q8N4C8 whole entry): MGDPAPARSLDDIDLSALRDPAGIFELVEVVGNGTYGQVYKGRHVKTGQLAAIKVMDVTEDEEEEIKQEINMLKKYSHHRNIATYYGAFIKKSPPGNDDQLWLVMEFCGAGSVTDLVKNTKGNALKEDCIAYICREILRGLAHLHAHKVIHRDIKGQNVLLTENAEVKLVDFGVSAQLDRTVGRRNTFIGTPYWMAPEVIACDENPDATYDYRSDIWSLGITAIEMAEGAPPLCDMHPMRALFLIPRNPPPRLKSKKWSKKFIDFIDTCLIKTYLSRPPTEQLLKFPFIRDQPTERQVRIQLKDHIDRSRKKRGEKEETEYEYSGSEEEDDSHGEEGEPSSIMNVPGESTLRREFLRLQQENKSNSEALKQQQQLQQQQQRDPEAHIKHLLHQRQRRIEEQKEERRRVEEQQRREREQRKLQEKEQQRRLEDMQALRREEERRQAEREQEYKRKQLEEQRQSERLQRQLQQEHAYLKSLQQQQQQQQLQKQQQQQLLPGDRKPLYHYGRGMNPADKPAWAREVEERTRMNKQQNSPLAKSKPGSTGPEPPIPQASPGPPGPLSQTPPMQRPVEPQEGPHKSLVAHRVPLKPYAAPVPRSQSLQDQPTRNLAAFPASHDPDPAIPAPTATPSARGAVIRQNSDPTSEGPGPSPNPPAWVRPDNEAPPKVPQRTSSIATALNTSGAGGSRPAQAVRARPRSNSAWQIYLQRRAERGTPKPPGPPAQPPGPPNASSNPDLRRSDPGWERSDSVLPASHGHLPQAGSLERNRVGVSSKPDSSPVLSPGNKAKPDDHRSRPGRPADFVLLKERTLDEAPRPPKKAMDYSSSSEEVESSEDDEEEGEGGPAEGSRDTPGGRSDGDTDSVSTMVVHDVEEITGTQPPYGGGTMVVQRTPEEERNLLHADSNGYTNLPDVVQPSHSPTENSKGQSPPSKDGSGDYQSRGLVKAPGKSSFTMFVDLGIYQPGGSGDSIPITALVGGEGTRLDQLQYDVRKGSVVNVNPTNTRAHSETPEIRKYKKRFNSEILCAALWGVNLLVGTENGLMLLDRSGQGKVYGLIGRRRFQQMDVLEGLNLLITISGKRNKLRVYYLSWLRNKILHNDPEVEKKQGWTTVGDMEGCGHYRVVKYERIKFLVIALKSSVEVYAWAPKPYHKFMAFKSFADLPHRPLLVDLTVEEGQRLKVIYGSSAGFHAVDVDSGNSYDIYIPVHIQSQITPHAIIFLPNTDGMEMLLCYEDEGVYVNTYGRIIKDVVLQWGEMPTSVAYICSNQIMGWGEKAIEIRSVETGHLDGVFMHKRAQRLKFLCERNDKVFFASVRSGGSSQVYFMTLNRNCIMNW

panel of 468 kinases [7] = target: T7, panel of 468 kinases (Homo sapiens, UniProt Q8TDX7); conditions: NEK7; 1 μM; read-out: % control
T7 construct: purchased KINOMEscan (ScanMAX) service
T7 sequence (Q8TDX7 whole entry): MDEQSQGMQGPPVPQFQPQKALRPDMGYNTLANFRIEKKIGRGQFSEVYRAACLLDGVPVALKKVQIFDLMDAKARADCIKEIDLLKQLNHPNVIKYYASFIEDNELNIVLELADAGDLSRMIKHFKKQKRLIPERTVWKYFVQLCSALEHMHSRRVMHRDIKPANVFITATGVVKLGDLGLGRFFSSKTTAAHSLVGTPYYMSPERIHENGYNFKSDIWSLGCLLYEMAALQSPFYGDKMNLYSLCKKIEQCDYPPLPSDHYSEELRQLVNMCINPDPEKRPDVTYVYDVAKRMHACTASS

panel of 468 kinases [8] = target: T8, panel of 468 kinases (Homo sapiens, UniProt Q9UQM7); conditions: CAMK2A; 1 μM; read-out: % control
T8 construct: purchased KINOMEscan (ScanMAX) service
T8 sequence (Q9UQM7 whole entry): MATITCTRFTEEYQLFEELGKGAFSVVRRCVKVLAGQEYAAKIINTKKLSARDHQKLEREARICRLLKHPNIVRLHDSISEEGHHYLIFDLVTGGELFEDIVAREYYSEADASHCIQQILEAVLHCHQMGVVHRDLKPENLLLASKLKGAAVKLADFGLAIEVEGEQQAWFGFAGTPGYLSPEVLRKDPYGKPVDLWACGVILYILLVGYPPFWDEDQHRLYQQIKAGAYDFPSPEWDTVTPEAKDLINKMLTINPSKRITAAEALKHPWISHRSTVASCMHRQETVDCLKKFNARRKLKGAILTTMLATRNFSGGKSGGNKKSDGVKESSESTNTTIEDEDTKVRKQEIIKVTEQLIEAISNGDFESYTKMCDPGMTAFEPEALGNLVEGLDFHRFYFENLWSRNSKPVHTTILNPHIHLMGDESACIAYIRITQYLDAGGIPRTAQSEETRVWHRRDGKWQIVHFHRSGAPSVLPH

T1 sequence (P00533 25-1210 L858R): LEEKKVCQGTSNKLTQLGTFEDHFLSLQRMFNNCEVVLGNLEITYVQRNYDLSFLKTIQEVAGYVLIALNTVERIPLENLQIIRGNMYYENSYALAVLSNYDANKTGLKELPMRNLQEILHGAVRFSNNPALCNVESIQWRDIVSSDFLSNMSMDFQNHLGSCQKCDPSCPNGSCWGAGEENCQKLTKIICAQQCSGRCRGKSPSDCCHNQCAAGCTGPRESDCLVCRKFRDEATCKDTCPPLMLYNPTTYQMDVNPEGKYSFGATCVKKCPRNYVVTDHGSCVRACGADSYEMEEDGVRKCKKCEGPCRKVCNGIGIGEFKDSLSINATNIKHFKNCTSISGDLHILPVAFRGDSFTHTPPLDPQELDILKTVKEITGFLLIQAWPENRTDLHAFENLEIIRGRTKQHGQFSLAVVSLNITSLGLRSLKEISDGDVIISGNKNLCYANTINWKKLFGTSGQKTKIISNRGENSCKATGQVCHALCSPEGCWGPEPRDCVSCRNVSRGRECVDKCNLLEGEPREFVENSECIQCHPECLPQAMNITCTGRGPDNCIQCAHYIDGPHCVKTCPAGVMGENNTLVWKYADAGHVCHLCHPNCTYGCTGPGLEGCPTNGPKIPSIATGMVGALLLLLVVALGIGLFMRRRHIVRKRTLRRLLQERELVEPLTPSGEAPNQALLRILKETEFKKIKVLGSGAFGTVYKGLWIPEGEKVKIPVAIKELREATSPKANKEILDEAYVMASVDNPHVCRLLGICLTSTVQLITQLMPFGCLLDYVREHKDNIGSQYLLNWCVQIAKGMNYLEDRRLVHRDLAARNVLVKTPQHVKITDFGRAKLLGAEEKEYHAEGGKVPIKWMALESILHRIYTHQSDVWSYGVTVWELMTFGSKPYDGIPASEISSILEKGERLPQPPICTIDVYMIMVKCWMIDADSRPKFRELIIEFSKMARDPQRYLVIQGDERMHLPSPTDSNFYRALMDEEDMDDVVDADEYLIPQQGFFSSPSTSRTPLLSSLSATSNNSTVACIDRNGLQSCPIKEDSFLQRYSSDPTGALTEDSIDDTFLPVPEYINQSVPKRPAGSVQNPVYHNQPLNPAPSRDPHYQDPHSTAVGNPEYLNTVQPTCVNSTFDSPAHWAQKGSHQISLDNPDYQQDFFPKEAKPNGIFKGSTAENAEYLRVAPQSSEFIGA

Q: Which remaining binding at 1 µM (panel of 468 kinases [1]) does the source give for `CNc1nc(Nc2ccc(S(=O)(=O)N3CCC(N4CCOCC4)CC3)cc2OC)nc2[nH]cc(Cl)c12` [Compound 12, 5-chloro-N2-(2-methoxy-4-((4-morpholinopiperidin-1-yl)sulfonyl)phenyl)-N4-methyl-7H-pyrrolo[2,3-d]pyrimidine-2,4-diamine] here?
A: 100%

Q: And the remaining binding at 1 µM (panel of 468 kinases [2])?
A: 100%

Q: And the remaining binding at 1 µM (panel of 468 kinases [3])?
A: 78%

Q: And the remaining binding at 1 µM (panel of 468 kinases [4])?
A: 26%

Q: And the remaining binding at 1 µM (panel of 468 kinases [5])?
A: 100%

Q: What about the remaining binding at 1 µM (panel of 468 kinases [6]) of the same molecule?
A: 75%

Q: And the remaining binding at 1 µM (panel of 468 kinases [7])?
A: 100%

Q: And the remaining binding at 1 µM (panel of 468 kinases [8])?
A: 100%

Q: Which results are given for `CNc1nc(Nc2ccc(C(=O)N3CCC(N4CCOCC4)CC3)c3c2OCO3)nc2[nH]cc(Cl)c12` [Compound 75, (7-((5-chloro-4-(methylamino)-7H-pyrrolo[2,3-d]pyrimidin-2-yl)amino)benzo[d][1,3]dioxol-4-yl)(4-morpholinopiperidin-1-yl)methanone]?
A: remaining binding at 1 µM (panel of 468 kinases [1]): 100%; remaining binding at 1 µM (panel of 468 kinases [2]): 100%; remaining binding at 1 µM (panel of 468 kinases [3]): 76%; remaining binding at 1 µM (panel of 468 kinases [4]): 0%; remaining binding at 1 µM (panel of 468 kinases [5]): 100%; remaining binding at 1 µM (panel of 468 kinases [6]): 18%; remaining binding at 1 µM (panel of 468 kinases [7]): 99%; remaining binding at 1 µM (panel of 468 kinases [8]): 70%

Q: With `CNc1nc(Nc2ccc(P3(=O)CCN(C4CCOCC4)CC3)cc2OC)nc2[nH]cc(Cl)c12` [Compound 77, 4-(4-((5-chloro-4-(methylamino)-7H-pyrrolo[2,3-d]pyrimidin-2-yl)amino)-3-methoxyphenyl)-1-(tetrahydro-2H-pyran-4-yl)-1,4-azaphosphinane 4-oxide] as the molecule, how does the remaining binding at 1 µM (panel of 468 kinases [1]) read?
A: 76%

Q: And the remaining binding at 1 µM (panel of 468 kinases [2])?
A: 100%

Q: What about the remaining binding at 1 µM (panel of 468 kinases [3]) of the same molecule?
A: 78%

Q: What about the remaining binding at 1 µM (panel of 468 kinases [4]) of the same molecule?
A: 7.5%

Q: And the remaining binding at 1 µM (panel of 468 kinases [5])?
A: 100%

Q: What about the remaining binding at 1 µM (panel of 468 kinases [6]) of the same molecule?
A: 63%

Q: And the remaining binding at 1 µM (panel of 468 kinases [7])?
A: 100%

Q: What about the remaining binding at 1 µM (panel of 468 kinases [8]) of the same molecule?
A: 88%

Source: patent US12479847B2 (DANA-FARBER CANCER INSTITUTE, INC., priority 2019, dated 2025)
